Tested on: H3N2 A/Hong Kong/1/1968 virus
Assay type: cell-based, influenza A virus

## CC(=O)N[C@H]1[C@H]([C@H](O)[C@H](O)CO)OC(C(=O)O)=C[C@@H]1N=C(N)N [Zanamivir, zanamivir]
  inhibition of cell-to-cell spread of the virus: efficient inhibition of cell-to-cell virus spread
